Where a name gives a salt, the structure may show the parent alone.
Assays:
[1] = test system: HCT-116 cells; assay: MTT assay; type: cell-based; settings: Homo sapiens, 24 h, mean ± SEM
Experimental: (§1) For the MTT assay, DU-145, MDA-MB-231, HCT-116, and HUVEC cells (American Type Culture Collection) were seeded at a concentration of 1 × 10^4 cells per well in 96-well plates and allowed to incubate overnight, ensuring proper adherence. Subsequently, a series of concentrations for both AQQ1 and AQQ2 (ranging from 1 to 100 µM) were added to the culture medium with a final concentration of 1% DMSO, and cells were subjected to an additional 24 h incubation period. The control group only received 1% DMSO (Biomatik, Cambridge, ON, Canada). To establish a baseline for comparison, DOXO (Saba, İstanbul, Turkey), a known chemotherapeutic agent, was administered at equivalent concentrations. Following the incubation period, MTT (3-(4,5-dimethylthiazol-2-yl)-2,5-diphenyltetrazolium bromide) (Biomatik, Canada) assay was carried out to assess cell viability. Finally, the absorbance was quantified at 590 nm using a BioTek Epoc plate reader (Biotek, Winooski, VT, USA). The derived data were analysed using GraphPad Prism 8 software to calculate the inhibitory concentration 50 (IC50) values of the test compounds.

[2] = test system: MDA-MB-231 cells; assay: MTT assay; type: cell-based; settings: Homo sapiens, 24 h, mean ± SEM
Experimental: as §1

[3] = test system: Human Umbilical Vein Endothelial Cells (HUVEC); assay: MTT assay; type: cell-based; settings: 24 h, mean ± SEM
Experimental: as §1

[4] = test system: DU-145 cells; assay: MTT assay; type: cell-based; settings: Homo sapiens, 24 h, mean ± SEM
Experimental: as §1

[5] = test system: DU-145 cells; assay: Cell cycle assay (flow cytometry, PI); type: cell-based, human; settings: 24 h, highest concentrations
Experimental: Cells were subjected to AQQ1 and DOXO treatments as previously described for apoptosis necrosis analysis. For cell cycle analysis, a cell population of 1 × 10^6 was collected, centrifuged, and the supernatant was removed. The resulting cellular pellet was re-suspended in 70% cold ethanol in PBS. Subsequently, the cells underwent a single PBS wash, followed by incubation in PBS containing […] PI (Sigma-Aldrich, St. Louis, MO, USA) and 2 mg/mL DNase-free RNase-A (Affymetrix, Inc., Santa Barbara, CA, USA) for 30 min at room temperature in a light-protected environment. Analysis was performed using the BD FACS Calibur Flow Cytometry System, and the BD CellQuest Pro Software software (version 5.1, Becton Dickinson, USA) was employed to determine cell cycle phase distributions in comparison to the control group.

IC50 [1]: 24.4 ± 6.9 µM
IC50 [2]: 59.1 ± 9.06 µM
IC50 [4]: < 100 µM
Structure (SMILES): COc1cccc2c1C(=O)c1c(O)c3c(c(O)c1C2=O)C[C@@](O)(C(=O)CO)C[C@@H]3O[C@H]1C[C@H](N)[C@H](O)[C@H](C)O1 [DOXO, Doxorubicin HCl, reference compound]
IC50 [3]: 57.5 ± 9.82 µM
population of cells in the G0/G1 phase [5]: showed a similar effect on DU-145 cells
